Results published in paper PMC4604124, “In Vitro Characterization of the Pharmacological Properties of the Anti-Cancer Chelator, Bp4eT, and Its Phase I Metabolites” (PLoS ONE, 2015).
“And” between values parts separate entries of the source, which are not always exact repeats. Identical values can stand only once. Like-named read-outs stand apart in the source and are kept apart here.

How the values were obtained:
H9c2 cardiomyoblasts = assay: MTT cytotoxicity assay, H9c2 cells; format: cell-based, rat; conditions: for IC50: MTT, read-out: IC50
Experimental: (§1) For cytotoxicity experiments, cancer cells were seeded at a density of 5,000 (MCF-7), 10,000 (HL-60) or 2,000 cells/well (HCT116 and A549) in 96-well plates (TPP) for 24 h/37°C prior to the addition of examined agents. The non-cancerous cells, 3T3 and H9c2 cells, were cultured for 24 h/37°C in 96-well plates at a density of 10,000 cells/well, the medium was then changed to serum- and pyruvate-free DMEM (Sigma-Aldrich) and incubated with the cells for another 24 h/37°C. The cytotoxic effects of Bp4eT and its metabolites were studied at different concentrations after a 72 h/37°C incubation. In order to aid the dissolution of the lipophilic ligands, 0.1% dimethyl sulfoxide (v/v) (DMSO; Sigma-Aldrich) was present in the culture medium of all groups. At this concentration, DMSO had no effect on cellular proliferation or viability.
(§2) The viability of cells were determined using an MTT assay (Sigma-Aldrich) according to previously established methods. The optical density of soluble MTT was measured at λ = 570 nm, subtracting the λ = 690 nm background using a Tecan Infinite 200M plate reader (Tecan Group, Männedorf, Switzerland). The viability or proliferation of experimental groups was expressed as a percentage of the untreated controls (100%).
(§3) SigmaStat for Windows 3.5 (Systat Software, San Jose, CA, USA) statistical software package was utilized to analyze results. The data are expressed as the mean ± SD of a given number of experiments. Statistical significance was determined using a one-way ANOVA with a Bonferroni post-hoc test or Student’s t-test. The results were considered to be statistically significant when p < 0.05. The IC50 values were calculated using CalcuSyn 2.0 software (Biosoft, Cambridge, UK). Cell cycle analysis was evaluated using MultiCycle AV Software (Phoenix Flow Systems, San Diego, CA, USA).

caspases 3/7 = assay: Caspase activity, luminescent kit, caspases 3/7; format: cell-based, human; conditions: for kaspáza (3) a 7, raw signal / kaspáza (3) a 7, signal / viabilita: individual experiments by date; for kaspáza (3) a 7, raw signal, průměry / kaspáza (3) a 7, % kontroly / kaspáza (3) a 7, signal / viabilita, průměry: mean; for kaspáza (3) a 7, % kontroly / kaspáza (3) a 7, signal / viabilita / kaspáza (3) a 7, signal / viabilita, průměry: normalised to viability
Experimental: To assess the effect of the compounds on caspase activity, MCF-7 cells were incubated with 100 nM Bp4eT or its metabolites for 3, 24 or 72 h/37°C in 96-well plates, as described above. The cells were then lysed by adding 100 μL of cold lysis buffer (100 mM HEPES, 10 mM CHAPS, 10 mM D-L-dithiothreitol, pH 7.4) to 100 μL of medium in each well. Lysates were immediately frozen at -80°C. Thawed lysates were used to assess caspase activity using luminescent kits for caspases 3/7, 8 and 9 (Promega, Madison, WI, USA). The luminescence was measured using the Tecan Infinite 200M plate reader. Caspase activity in the experimental groups was corrected according to the cellular viability of each group and expressed as a percentage of activity of the untreated control (100%).

[1] = system: labile iron pool of MCF-7 cells; assay: Calcein-AM assay, access to the labile iron pool; format: cell-based, human; set-up: Calcein fluorescence: unit not given here; conditions: 10 μM
Experimental: These experiments were performed according to Glickstein et al. with slight modifications. The MCF-7 cells were seeded in 96-well plates (10,000 cells/well) and allowed to adhere for 24 h/37°C. Cells were loaded with iron using the cellular iron donor, ferric ammonium citrate (530 μg/mL), 24 h prior to the experiment, and then washed. To prevent potential interference, especially with regard to various trace elements, the medium was replaced with ADS buffer (prepared using Millipore water supplemented with 116 mM NaCl, 5.3 mM KCl, 1 mM CaCl2, 1.2 mM MgSO4, 1.13 mM NaH2PO4, 5 mM D-glucose, and 20 mM HEPES, pH 7.4). Cells were then loaded with 2 μM of the cell-permeable calcein green acetoxymethyl ester (calcein-AM; Molecular Probes, Oregon, USA) for 30 min/37°C and washed. Cellular esterases cleave the acetoxymethyl groups to form the cell membrane-impermeable compound, calcein green. The fluorescence of calcein green is quenched upon binding iron. The intracellular fluorescence (λex = 488 nm; λem = 530 nm) of calcein green was then followed as a function of time (10 min after the addition of 10 μM Bp4eT or its metabolites) at 37°C using the Tecan Infinite 200M plate reader. The iron chelation efficacy of the metabolites in cells was expressed as a percentage of the efficacy of the parent chelator, Bp4eT (100%).

[2] = system: HL-60 human promyelocytic leukemia cells; assay: MTT cytotoxicity assay, HL-60 cells; format: cell-based; conditions: for IC50: MTT, read-out: IC50
Experimental: as §1, §2, §3

Structure (SMILES): CCNC(=O)NN=C(c1ccccc1)c1ccccn1 [E-Bp4eS, 2-benzoylpyridine 4-ethylsemicarbazone]
- IC50 (H9c2 cardiomyoblasts; H9c2, 72 h/37°C, mean ± SD, n ≥ 4): 884 ± 279 µM
- MTT, relative to control (0 = 100) (H9c2 cardiomyoblasts; H9c2, 10 000 b/j, 1 μM, průměr (mean), sheet E-Bp4eS): 94.39
- MTT, relative to control (0 = 100) (H9c2 cardiomyoblasts; H9c2, 10 000 b/j, 1 μM, single experiment (date), sheet E-Bp4eS): 95.7668 and 93.0745 and 94.7872 and 93.9178
- MTT, relative to control (0 = 100) (H9c2 cardiomyoblasts; H9c2, 10 000 b/j, 3 μM, průměr (mean), sheet E-Bp4eS): 94.04
- MTT, relative to control (0 = 100) (H9c2 cardiomyoblasts; H9c2, 10 000 b/j, 3 μM, single experiment (date), sheet E-Bp4eS): 97.8721 and 90.4272 and 95.5074 and 92.3686
- MTT, relative to control (0 = 100) (H9c2 cardiomyoblasts; H9c2, 10 000 b/j, 10 μM, průměr (mean), sheet E-Bp4eS): 92.87
- MTT, relative to control (0 = 100) (H9c2 cardiomyoblasts; H9c2, 10 000 b/j, 10 μM, single experiment (date), sheet E-Bp4eS): 97.5948 and 91.5814 and 93.3122 and 89.0018
- MTT, relative to control (0 = 100) (H9c2 cardiomyoblasts; H9c2, 10 000 b/j, 30 μM, průměr (mean), sheet E-Bp4eS): 87.33
- MTT, relative to control (0 = 100) (H9c2 cardiomyoblasts; H9c2, 10 000 b/j, 30 μM, single experiment (date), sheet E-Bp4eS): 92.2111 and 86.1798 and 89.4636 and 81.4505
- MTT, relative to control (0 = 100) (H9c2 cardiomyoblasts; H9c2, 10 000 b/j, 100 μM, průměr (mean), sheet E-Bp4eS): 77.15
- MTT, relative to control (0 = 100) (H9c2 cardiomyoblasts; H9c2, 10 000 b/j, 100 μM, single experiment (date), sheet E-Bp4eS): 79.5863 and 76.8996 and 78.6318 and 73.5016
- MTT, relative to control (0 = 100) (H9c2 cardiomyoblasts; H9c2, 10 000 b/j, 300 μM, průměr (mean), sheet E-Bp4eS): 65.67
- MTT, relative to control (0 = 100) (H9c2 cardiomyoblasts; H9c2, 10 000 b/j, 300 μM, single experiment (date), sheet E-Bp4eS): 61.9338 and 65.3898 and 65.2717 and 70.085
- MTT, relative to control (0 = 100) (H9c2 cardiomyoblasts; H9c2, 10 000 b/j, 1000 μM, průměr (mean), sheet E-Bp4eS): 48.11
- MTT, relative to control (0 = 100) (H9c2 cardiomyoblasts; H9c2, 10 000 b/j, 1000 μM, single experiment (date), sheet E-Bp4eS): 55.0254 and 43.1142 and 38.2886 and 56.005
- IC50 (H9c2 cardiomyoblasts; H9c2, 10 000 b/j, single experiment (date), sheet E-Bp4eS): 683 µM and 1140 µM and 606 µM
- IC50 (H9c2 cardiomyoblasts; Rattus norvegicus, H9c2, H9c2, 10 000 b/j, průměr (mean), sheet E-Bp4eS): 884 µM
- IC50 (H9c2 cardiomyoblasts; Rattus norvegicus, H9c2, H9c2, 10 000 b/j, single experiment (date), sheet E-Bp4eS): 1100 µM
- kaspáza (3) a 7, raw signal (caspases 3/7; 3 hodiny): 2046.5 and 1555.5 and 1698 and 1596
- kaspáza (3) a 7, raw signal, průměry (caspases 3/7; 3 hodiny): 1724
- kaspáza (3) a 7, % kontroly (caspases 3/7; 3 hodiny): 106.30 % kontroly
- kaspáza (3) a 7, signal / viabilita (caspases 3/7; 3 hodiny): 20.8429 and 15.8422 and 17.2935 and 16.2547
- kaspáza (3) a 7, signal / viabilita, průměry (caspases 3/7; 3 hodiny): 17.5583
- kaspáza (3) a 7, raw signal (caspases 3/7; 24 hodin): 2362.5 and 2475 and 2765.5 and 2572
- kaspáza (3) a 7, raw signal, průměry (caspases 3/7; 24 hodin): 2543.75
- kaspáza (3) a 7, % kontroly (caspases 3/7; 24 hodin): 112.45 % kontroly
- kaspáza (3) a 7, signal / viabilita (caspases 3/7; 24 hodin): 23.7515 and 24.8825 and 27.8031 and 25.8577
- kaspáza (3) a 7, signal / viabilita, průměry (caspases 3/7; 24 hodin): 25.5737
- kaspáza (3) a 7, raw signal (caspases 3/7; 72 hodin): 7302.5 and 8023 and 7227 and 8569
- kaspáza (3) a 7, raw signal, průměry (caspases 3/7; 72 hodin): 7780.38
- kaspáza (3) a 7, % kontroly (caspases 3/7; 72 hodin): 107.49 % kontroly
- kaspáza (3) a 7, signal / viabilita (caspases 3/7; 72 hodin): 74.6601 and 82.0264 and 73.8882 and 87.6086
- kaspáza (3) a 7, signal / viabilita, průměry (caspases 3/7; 72 hodin): 79.5458
- Calcein fluorescence ([1]; 30 sec, mean (průměr)): 0.000
- Calcein fluorescence ([1]; 30 sec, single experiments): 0.000
- Calcein fluorescence ([1]; 60 sec, mean (průměr)): 3.596
- Calcein fluorescence ([1]; 90 sec, mean (průměr)): 0.696
- Calcein fluorescence ([1]; 120 sec, mean (průměr)): 1.617
- Calcein fluorescence ([1]; 300 sec, mean (průměr)): 0.000
- Calcein fluorescence ([1]; 300 sec, single experiments): 0.000
- Calcein fluorescence ([1]; 600 sec, mean (průměr)): 0.000
- Calcein fluorescence ([1]; 600 sec, single experiments): 0.000
- Chelation efficacy: fluorescence of free calcein at t = 600 s as percentage of Bp4eT ([1]; MCF-7, mean of 6 experiments): 0.0001667%
- Fluorescence of free calcein at 600 s as percentage of Bp4eT ([1]; MCF-7, single experiments): 0%
- Therapeutic index, IC50 non-cancerous cells / IC50 neoplastic cells ([2]; 3T3/HL-60): >6.6
- Therapeutic index, IC50 non-cancerous cells / IC50 neoplastic cells ([2]; H9c2/HL-60): 5.9
- IC50 ([2]; HL-60, 72 h/37°C, mean ± SD, n ≥ 4): 151 ± 9.1 µM
- MTT, relative to control (0 = 100) ([2]; HL-60, 10 000 b/j, 3 μM, průměr (mean), sheet E-Bp4eS): 97.96
- MTT, relative to control (0 = 100) ([2]; HL-60, 10 000 b/j, 3 μM, single experiment (date), sheet E-Bp4eS): 100.761 and 104.358 and 95.5768 and 91.1569
- MTT, relative to control (0 = 100) ([2]; HL-60, 10 000 b/j, 10 μM, průměr (mean), sheet E-Bp4eS): 99.97
- MTT, relative to control (0 = 100) ([2]; HL-60, 10 000 b/j, 10 μM, single experiment (date), sheet E-Bp4eS): 101.567 and 98.1615 and 96.1949 and 103.964
- MTT, relative to control (0 = 100) ([2]; HL-60, 10 000 b/j, 30 μM, průměr (mean), sheet E-Bp4eS): 95.62
- MTT, relative to control (0 = 100) ([2]; HL-60, 10 000 b/j, 30 μM, single experiment (date), sheet E-Bp4eS): 99.0132 and 96.6154 and 90.9257 and 95.914
- MTT, relative to control (0 = 100) ([2]; HL-60, 10 000 b/j, 100 μM, průměr (mean), sheet E-Bp4eS): 79.54
- MTT, relative to control (0 = 100) ([2]; HL-60, 10 000 b/j, 100 μM, single experiment (date), sheet E-Bp4eS): 81.2266 and 75.7782 and 76.5508 and 84.6199
- MTT, relative to control (0 = 100) ([2]; HL-60, 10 000 b/j, 120 μM, průměr (mean), sheet E-Bp4eS): 74.92
- MTT, relative to control (0 = 100) ([2]; HL-60, 10 000 b/j, 120 μM, single experiment (date), sheet E-Bp4eS): 75.3051 and 80.9667 and 70.8568 and 72.5675
- MTT, relative to control (0 = 100) ([2]; HL-60, 10 000 b/j, 140 μM, průměr (mean), sheet E-Bp4eS): 62.34
- MTT, relative to control (0 = 100) ([2]; HL-60, 10 000 b/j, 140 μM, single experiment (date), sheet E-Bp4eS): 62.4842 and 69.381 and 45.4725 and 72.037
- MTT, relative to control (0 = 100) ([2]; HL-60, 10 000 b/j, 150 μM, průměr (mean), sheet E-Bp4eS): 38.39
- MTT, relative to control (0 = 100) ([2]; HL-60, 10 000 b/j, 300 μM, průměr (mean), sheet E-Bp4eS): 3.81
- IC50 ([2]; HL-60, 10 000 b/j, single experiment (date), sheet E-Bp4eS): 159 µM and 144 µM and 141 µM
- IC50 ([2]; Homo sapiens, HL-60, HL-60, 10 000 b/j, průměr (mean), sheet E-Bp4eS): 150 µM
- IC50 ([2]; Homo sapiens, HL-60, HL-60, 10 000 b/j, single experiment (date), sheet E-Bp4eS): 158 µM
